Measurements published in paper PMC10257182, “Discovery of senolytics using machine learning” (Nature Communications, 2023).
Counter-ions that a name gives are not always drawn. Like-named read-outs stand apart in the source and are kept apart here.

How the values were obtained:
Format in all cases: cell-based, human
[1] = system: senescent A549 cells (etoposide-induced); experiment: Nuclei count senolytic assay, therapy-induced senescence (TIS) model, senescent cells; conditions: Homo sapiens, A549, Senescent cells, mean, read-out: Mean % Cell Survival; for viability at 10 µM: log (dose) [M] -5; for viability at 4.68 µM: log (dose) [M] -5.33; for viability at 2.19 µM: log (dose) [M] -5.66; for viability at 1 µM: log (dose) [M] -6; for viability at 0.468 µM: log (dose) [M] -6.33; for viability at 0.219 µM: log (dose) [M] -6.66; for viability at 0.1 µM: log (dose) [M] -7; for viability at 0.0468 µM: log (dose) [M] -7.33; for viability at 0.0219 µM: log (dose) [M] -7.66; for viability at 0.01 µM: log (dose) [M] -8
Procedure, shortened: (§1)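 A549 cells made senescent with 100 μM etoposide for 48 h then 3 days in normal media; non-senescent A549 as control. Cells were exposed for 72 h to a 10-point […] range (10 μM–10 nM) in triplicate, then fixed, Hoechst-stained and imaged for nuclei count.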

[2] = system: non-senescent control IMR90 ER:RAS cells; experiment: Nuclei count (Hoechst, high content imaging) senolytic assay, OIS model, non-senescent control cells; conditions: Homo sapiens; for viability at 2.188 µM: log (dose) [M] -5.66, 72 h; for viability at 0.4677 µM: log (dose) [M] -6.33, 72 h; for viability at 2.19 µM: log (dose) [M] -5.66; for viability at 0.468 µM: log (dose) [M] -6.33
Procedure, shortened: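 Compared non-senescent and senescent IMR90 ER:RAS cultures (senescence induced with 4-OHT at 100 nM final); cells seeded 24 h before dosing, then exposed 72 h to compounds, 10-point […] range 10 μM–10 nM, triplicate. Fixed, Hoechst-stained, nuclei counted by high-content imaging; drop versus untreated reflects cell death.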

[3] = system: non-senescent control A549 cells; experiment: Nuclei count senolytic assay, TIS model, non-senescent control cells; conditions: Homo sapiens, A549, Control cells, mean, read-out: Mean % Cell Survival; for viability at 10 µM: log (dose) [M] -5; for viability at 4.68 µM: log (dose) [M] -5.33; for viability at 2.19 µM: log (dose) [M] -5.66; for viability at 1 µM: log (dose) [M] -6; for viability at 0.468 µM: log (dose) [M] -6.33; for viability at 0.219 µM: log (dose) [M] -6.66; for viability at 0.1 µM: log (dose) [M] -7; for viability at 0.0468 µM: log (dose) [M] -7.33; for viability at 0.0219 µM: log (dose) [M] -7.66; for viability at 0.01 µM: log (dose) [M] -8
Procedure, shortened: as §1

[4] = IMR-90, 72 h, Control, log (dose) [M] -5, 72 h, mean n=3 (Fig 3C), read-out: Mean % Cell Survival
[5] = IMR-90, 72 h, Control, log (dose) [M] -5.33, 72 h, mean n=3 (Fig 3C), read-out: Mean % Cell Survival
[6] = IMR-90, 72 h, Control, mean n=3 (Fig 3C), read-out: Mean % Cell Survival
[7] = IMR-90, 72 h, Control, log (dose) [M] -6, 72 h, mean n=3 (Fig 3C), read-out: Mean % Cell Survival
[8] = IMR-90, 72 h, Control, log (dose) [M] -6.66, 72 h, mean n=3 (Fig 3C), read-out: Mean % Cell Survival
[9] = IMR-90, 72 h, Control, log (dose) [M] -7, 72 h, mean n=3 (Fig 3C), read-out: Mean % Cell Survival
[10] = IMR-90, 72 h, Control, log (dose) [M] -7.33, 72 h, mean n=3 (Fig 3C), read-out: Mean % Cell Survival
[11] = IMR-90, 72 h, Control, log (dose) [M] -7.66, 72 h, mean n=3 (Fig 3C), read-out: Mean % Cell Survival
[12] = IMR-90, 72 h, Control, log (dose) [M] -8, 72 h, mean n=3 (Fig 3C), read-out: Mean % Cell Survival
[13] = IMR-90, Control cells, log (dose) [M] -7.33, individual replicates, SUP FIG 4C, read-out: % Cell Survival
[14] = IMR-90, Control cells, log (dose) [M] -8, individual replicates, SUP FIG 4C, read-out: % Cell Survival
[15] = IMR-90, Control, log (dose) [M] -5.33, read-out: % Cell Survival
[16] = IMR-90, Control, read-out: % Cell Survival

CC[C@]1(O)C[C@@H]2CN(CCc3c([nH]c4ccccc34)[C@@](C(=O)OC)(c3cc4c(cc3OC)N(C)[C@H]3[C@@](O)(C(=O)OC)[C@H](OC(C)=O)[C@]5(CC)C=CCN6CC[C@]43[C@@H]65)C2)C1 [Vinblastine sulfate, vinblastine sulfate, reference compound]
viability at 10 µM [1]: 88.8% | viability at 4.68 µM [1]: 83.2% | viability at 2.19 µM [1]: 90.4% | viability at 1 µM [1]: 72.2% | viability at 0.468 µM [1]: 92.1% | viability at 0.219 µM [1]: 97.3% | viability at 0.1 µM [1]: 103% | viability at 0.0468 µM [1]: 99.9% | viability at 0.0219 µM [1]: 103% | viability at 0.01 µM [1]: 104% | viability at 10 µM [2, 4]: 51.7% | viability at 4.677 µM [2, 5]: 55.1% | viability at 2.188 µM [2, 6]: 57.9% | viability at 1 µM [2, 7]: 76.4% | viability at 0.4677 µM [2, 6]: 76.9% | viability at 0.2188 µM [2, 8]: 80.8% | viability at 0.1 µM [2, 9]: 104% | viability at 0.04677 µM [2, 10]: 112% | viability at 0.02188 µM [2, 11]: 104% | viability at 0.01 µM [2, 12]: 105% | viability at 0.04677 µM [2, 13]: 114% | viability at 0.01 µM [2, 14]: 102% | viability at 10 µM ([2]; IMR-90, Control, log (dose) [M] -5, read-out: % Cell Survival): 46.8% | viability at 4.68 µM [2, 15]: 42.3% | viability at 2.19 µM [2, 16]: 47.6% | viability at 1 µM ([2]; IMR-90, Control, log (dose) [M] -6, read-out: % Cell Survival): 41.3% | viability at 0.468 µM [2, 16]: 41.5% | viability at 10 µM [3]: 47.4% | viability at 4.68 µM [3]: 46.3% | viability at 2.19 µM [3]: 48.5% | viability at 1 µM [3]: 47% | viability at 0.468 µM [3]: 45.9% | viability at 0.219 µM [3]: 49.9% | viability at 0.1 µM [3]: 52.9% | viability at 0.0468 µM [3]: 66.7% | viability at 0.0219 µM [3]: 69.2% | viability at 0.01 µM [3]: 78.7%

CO[C@H]1C[C@@H]2CC[C@@H](C)[C@@](O)(O2)C(=O)C(=O)N2CCCC[C@H]2C(=O)O[C@H]([C@H](C)C[C@@H]2CC[C@H](n3cnnn3)[C@H](OC)C2)CC(=O)[C@H](C)/C=C(\C)[C@@H](O)[C@@H](OC)C(=O)[C@H](C)C[C@H](C)/C=C/C=C/C=C/1C [Zotarolimus, zotarolimus, reference compound]
viability at 10 µM [1]: 138% | viability at 4.68 µM [1]: 160% | viability at 2.19 µM [1]: 123% | viability at 1 µM [1]: 143% | viability at 0.468 µM [1]: 130% | viability at 0.219 µM [1]: 174% | viability at 0.1 µM [1]: 155% | viability at 0.0468 µM [1]: 136% | viability at 0.0219 µM [1]: 127% | viability at 0.01 µM [1]: 84.3% | viability at 10 µM [2, 4]: 94.7% | viability at 4.677 µM [2, 5]: 101% | viability at 2.188 µM [2, 6]: 84.8% | viability at 1 µM [2, 7]: 104% | viability at 0.4677 µM [2, 6]: 108% | viability at 0.2188 µM [2, 8]: 99.6% | viability at 0.1 µM [2, 9]: 95.5% | viability at 0.04677 µM [2, 10]: 105% | viability at 0.02188 µM [2, 11]: 110% | viability at 0.01 µM [2, 12]: 98.2% | viability at 4.677 µM ([2]; IMR-90, Control cells, log (dose) [M] -5.33, individual replicates, SUP FIG 4C, read-out: % Cell Survival): 107% | viability at 1 µM ([2]; IMR-90, Control cells, log (dose) [M] -6, individual replicates, SUP FIG 4C, read-out: % Cell Survival): 109% | viability at 0.2188 µM ([2]; IMR-90, Control cells, log (dose) [M] -6.66, individual replicates, SUP FIG 4C, read-out: % Cell Survival): 99.3% | viability at 0.1 µM ([2]; IMR-90, Control cells, log (dose) [M] -7, individual replicates, SUP FIG 4C, read-out: % Cell Survival): 91% | viability at 0.04677 µM [2, 13]: 102% | viability at 0.02188 µM ([2]; IMR-90, Control cells, log (dose) [M] -7.66, individual replicates, SUP FIG 4C, read-out: % Cell Survival): 111% | viability at 0.01 µM [2, 14]: 93.6% | viability at 4.68 µM [2, 15]: 92.8% | viability at 2.19 µM [2, 16]: 83.4% | viability at 0.468 µM [2, 16]: 93.7% | viability at 0.219 µM ([2]; IMR-90, Control, log (dose) [M] -6.66, read-out: % Cell Survival): 88.1% | viability at 0.1 µM ([2]; IMR-90, Control, log (dose) [M] -7, read-out: % Cell Survival): 98.7% | viability at 0.04677 µM ([2]; IMR-90, Control, log (dose) [M] -7.33, read-out: % Cell Survival): 99.6% | viability at 0.0219 µM ([2]; IMR-90, Control, log (dose) [M] -7.66, read-out: % Cell Survival): 85.6% | viability at 0.01 µM ([2]; IMR-90, Control, log (dose) [M] -8, read-out: % Cell Survival): 99.5% | viability at 10 µM [3]: 84.8% | viability at 4.68 µM [3]: 92.5% | viability at 2.19 µM [3]: 84.4% | viability at 1 µM [3]: 76.7% | viability at 0.468 µM [3]: 92.9% | viability at 0.219 µM [3]: 91% | viability at 0.1 µM [3]: 95.4% | viability at 0.0468 µM [3]: 98.8% | viability at 0.0219 µM [3]: 96.8% | viability at 0.01 µM [3]: 109%
